Assay results: ChEMBL document CHEMBL2321655, “Insulin-like growth factor-1 receptor inhibitors: a potential cancer treatment: patent highlight” (ACS Med Chem Lett, 2013)

How the values were obtained:
MCF7 = assay: Antiproliferative activity against human MCF7 cells; type: functional, cell-based
HT-29 = assay: Antiproliferative activity against human HT-29 cells; type: functional, cell-based

| IC50 (MCF7) [µM] | IC50 (HT-29) [µM] | Structure (SMILES) |
| --- | --- | --- |
| 2.2 | > 10 | NC(=O)c1[nH]c2c(N)cc(Cl)cc2c1S(=O)(=O)N1CCOC(COc2ccccc2)C1 (stereo not drawn) |
| 0.9 | 1.7 | CCOC(=O)N1CCC(Nc2cc(Cl)cc3c(S(=O)(=O)N4CCOC(COc5ccccc5)C4)c(C(N)=O)[nH]c23)CC1 (stereo not drawn) |
| 0.8 | 2.8 | NC(=O)c1[nH]c2c(NC3CCOCC3)cc(Cl)cc2c1S(=O)(=O)N1CCOC(COc2ccccc2)C1 (stereo not drawn) |
| < 1 | 5.3 | N#CCCNc1cc(Cl)cc2c(S(=O)(=O)N3CCOC(COc4ccccc4)C3)c(C(N)=O)[nH]c12 (stereo not drawn) |
